The text below walks through data of patent US6297230A, “Cyanoaziridines for treating cancer” (priority 2000, dated 2001).

Values after ≈ are worked out from the molar mass of the structure shown.

One assay relates to MCF-7/MITOX cells. Nature of the assay: In vitro antitumor activity, MCF-7/MITOX. In kind it is cell-based. The settings on record: Homo sapiens, MCF7/Mitox; MCF-7 breast, mitoxantrone resistant. The text has this: (§1) 1) in vitro tumor cell viability assays using MTT and SRB dye reaction endpoints.
(§2) Sulforhodamine B (SRB) Assay for Adherent Tumor Cells
(§3) Sulforhodamine B (SRB) is a protein binding aminoxanthene dye with two sulfonic acid groups. (Lillie, R. D., H. J. Conn's Biological Stains, 9th Ed., Baltimore; Williams & Wilkins, 1977.) It quantitates whole cell protein content by the intensity of dye staining and relates this to the number of viable cells. […] The SRB assay is used for cells which normally adhere to surfaces (in this case plastic culture flasks or petri dishes) as part of their requirement for growth and division in vitro. The SRB assay is currently used by the National Cancer Institute in the anticancer drug screening program. (Skehan, et al., J Natl Cancer Inst 82:1107-1112, 1990; Rubinstein, et al., J Natl Cancer Inst 82:1113-1118, 1990.) Methodologic comparisons have shown that SRB results are linear for the number of tumor cells over a 100-fold range, and for protein content determined by a modified Lowry method or Standard Bradford (Bradford, M., Anal Biochem 72:248-254, 1976) methods. […] (Lillie, R. D., H. J. Conn's Biological Stains, 9th Ed., Baltimore; Williams & Wilkins, 1977.)
(§4) Cell cultures of 10^3 -10^7 cells growing in 96-well plastic microtiter plates are fixed with 50% trichloroacetic acid (TCA) for 30 minutes at 4° C. The cells are then stained with 0.4% (w/v) sulforhodamine B (SRB) dissolved in 1% acetic acid. Unbound dye is removed by 4 washes with 1% acetic acid, and protein-bound dye is extracted with 10 mM unbuffered Tris® base [tris(hydroxymethyl)aminomethane]. The optical density (OD) of this extracted solution is measured at […] in a microtiter plate ultraviolet absorbance detector. Cell viability is expressed as percent of control by dividing the optical densities and multiplying the result by 100.
(§5) Microculture Tetrazolium (MTT) Assay for Tumor Cells
(§6) Tumors are disaggregated into single cell suspensions using mechanical, hypoosmotic, and/or enzymatic (trypsin) methods. The cells are plated at a concentration of 3-5×10^4 per […] well into plastic 96-well plates. Growth medium containing 5-10% (vol/vol) heat-inactivated fetal bovine serum and penicillin/streptomycin (both […]) are added prior to incubation at 37° C. for 6 days. Afterwards the medium containing the drug is removed, the cells are centrifuged in fresh medium or phosphate-buffered saline (pH 7.4). A tetrazolium dye, […]-2,5-diphenyl tetrazolium (MTT), is then added. (Mossman, T., J Immunol 65:55-63, 1983.) This dye forms a colored formazan product upon activation by mitochondrial reductases in viable cells. Typically, the formazan product is solubilized in acid-propanol or DMSO. The intensity of the color is proportional to viable cell numbers and this is quantitated by spectrophotometric absorbance at 570 nm on a micro ELISA plate reader. The results are calibrated in % control absorbance from untreated tumor cells. (Alley, et al., Cancer Res 48:589-601, 1988.)
(§7) Table 3 gives the potencies of the new aziridine-1-carboxamides in a panel of human and murine tumor cells in culture. The tumor cell lines in this table are selected to represent a range of histological and growth phenotypes. Their characteristics are described below.
(§8) 1.3 MCF-7/D40 and MCF-7/MITOX cell lines were developed by chronic exposure in vitro to increasing concentrations of the DNA-intercalating antitumor agents doxorubicin and mitoxantrone, respectively. […] The MCF-7/D40 cells express the cell membrane efflux pump, P-glycoprotein and are over 40-fold resistant to doxorubicin, mitoxantrone and the vinca alkaloids, vinblastine and vincristine.

A further assay concerns tumor cell line panel. Nature of the assay: Panel of tumor cell lines in vitro. In kind it is cell-based, human and murine. The settings on record: all 3 MCF-7 breast lines and parental WiDr colon. The protocol: as §1, §2, §4, §6
Table 3 gives the potencies of the new aziridine-1-carboxamides in a panel of human and murine tumor cells in culture. […]

Assay [1] relates to MCF-7 breast cancer cells (sens.). Nature of the assay: In vitro antitumor activity, MCF-7 breast (sensitive). In kind it is cell-based. The settings on record: Homo sapiens, MCF7.
Excerpt: as §1, §2, §3, §4, §5, §6, §7
1.1 MCF-7 Breast Cancer: The parental (sensitive) MCF-7 breast cancer is an estrogen-dependent adenocarcinoma originally derived from a pleural effusion in a person with advanced metastatic breast cancer. (Soule, et al., J Natl Cancer Inst 51:1409-1416, 1973.)

A further assay relates to A-549 lung cancer cells. Nature of the assay: In vitro antitumor activity, A-549 lung. The settings on record: Homo sapiens, A549. In kind it is cell-based.
Excerpt: as §1, §2, §3, §4, §5, §6, §7
3.0 A-549 Human Lung Cancer is an adenocarcinoma type of non-small cell lung cancer (NSCLC). It was established by Girard, et al. from a fresh tumor specimen obtained from a person with advanced lung cancer. (Girard, et al., J Natl Cancer Inst 51(5):1417-1423, 1973.) It has 5.6% plating efficiency (colony formation) on agar-coated plates, 66 modal chromosome number and grows rapidly when injected subcutaneously, forming acinar pattern tumors in immunodeficient mice. […]

Another assay relates to MCF-7/D40 cells. Nature of the assay: In vitro antitumor activity, MCF-7/D40. In kind it is cell-based. The settings on record: Homo sapiens, MCF7; MCF-7 breast, D40 (40-fold doxorubicin resistant).
Excerpt: as §1, §2, §3, §4, §5, §6, §7, §8

The test system of a further assay is WiDr colon cancer cells. Nature of the assay: In vitro antitumor activity, WiDr colon. In kind it is cell-based. The settings on record: Homo sapiens.
Excerpt: as §1, §2, §3, §4, §5, §6, §7
2.1 WiDr: The adenocarcinoma cell line WiDr was originally isolated by Noguchi, et al. from a primary colon tumor specimen from a patient with advanced colon carcinoma. (Noguchi, et al, In Vitro 35(6):401-407, 1979.) The WiDr MITOX cell line was developed for mitoxantrone resistance by growth in serially elevated concentration of mitoxantrone. […] (Dalton, et al., Cancer Res 48:1882-1888, 1988.)

One may read the IC50 as the concentration that inhibits the measured activity by half. A higher IC50 goes with a need for much substance. Turning to `N#CC1CN1C(=O)Nc1ccc(C(F)(F)F)cc1` (stereo not drawn) [AMP 416, 2-Cyanoaziridine-1-[N-(4-trifluorophenyl)]carboxamide], the IC50 in the assay with MCF-7/MITOX cells was 0.3 µg/mL (≈ 1.18 µM); in assay [1], 0.4 µg/mL (≈ 1.57 µM); with A-549 lung cancer cells it was 1.1 µg/mL (≈ 4.31 µM); in the assay on MCF-7/D40 cells, 0.4 µg/mL (≈ 1.57 µM); in the assay on WiDr colon cancer cells, 0.3 µg/mL (≈ 1.18 µM). Moreover, in the assay on tumor cell line panel, the “Tumor cell sensitivity in solid tumor lines” value (“Tumor cell sensitivity” for short) is on record as “tumor cell sensitivity increased”.
For the compound `CCOC(=O)c1ccc(NC(=O)N2CC2C#N)cc1` (stereo not drawn) [AMP 419, 2-Cyanoaziridine-1-[N-(4-ethoxycarbonylphenyl)]carboxamide], in the assay on A-549 lung cancer cells, 1.5 µg/mL (≈ 5.79 µM) corresponded to half-maximal inhibition (IC50).
In the case of `N#CC1CN1C(=O)NC1CCCCC1` (stereo not drawn) [AMP 413, 2-Cyanoaziridine-1-(N-cyclohexyl)carboxamide], the IC50 worked out at 1.9 µg/mL (≈ 9.83 µM) with MCF-7/MITOX cells; 2.5 µg/mL (≈ 12.9 µM) in assay [1]; 1.9 µg/mL (≈ 9.83 µM) in the assay on A-549 lung cancer cells; 1.7 µg/mL (≈ 8.8 µM) with MCF-7/D40 cells; 0.4 µg/mL (≈ 2.07 µM) in the assay with WiDr colon cancer cells.
In the case of `N#CC1CN1C(=O)Nc1ccc(F)cc1` (stereo not drawn) [AMP 415, 2-Cyanoaziridine-1-[N-(4-fluorophenyl)]carboxamide], the half-maximal inhibitory concentration (IC50) is 0.6 µg/mL (≈ 2.92 µM) with MCF-7/MITOX cells; 0.4 µg/mL (≈ 1.95 µM) in assay [1]; 1.3 µg/mL (≈ 6.34 µM) with A-549 lung cancer cells; 0.5 µg/mL (≈ 2.44 µM) with MCF-7/D40 cells; 0.4 µg/mL (≈ 1.95 µM) in the assay on WiDr colon cancer cells. For the same compound, the “Tumor cell sensitivity” value in the assay with tumor cell line panel was “tumor cell sensitivity increased”.
Take `CNC(=O)N1CC1C#N` (stereo not drawn) [AMP 403, 2-Cyanoaziridine-1-(N-methyl)carboxamide]: the concentration for half-maximal inhibition (IC50) in the assay on MCF-7/MITOX cells is 2.3 µg/mL (≈ 18.4 µM); in assay [1], 3.3 µg/mL (≈ 26.4 µM); in the assay on MCF-7/D40 cells it was 2.1 µg/mL (≈ 16.8 µM).
As for `N#CC1CN1C(=O)NCc1ccccc1` (stereo not drawn) [AMP 412, 2-Cyanoaziridine-1-(N-benzyl)carboxamide], the IC50 with MCF-7/MITOX cells amounted to 0.7 µg/mL (≈ 3.48 µM); in assay [1], 1.5 µg/mL (≈ 7.45 µM); in the assay on A-549 lung cancer cells it was 1.5 µg/mL (≈ 7.45 µM); in the assay with MCF-7/D40 cells, 1.2 µg/mL (≈ 5.96 µM); with WiDr colon cancer cells it was 1.1 µg/mL (≈ 5.47 µM).
Regarding `N#CC1CN1C(=O)Nc1ccccc1` (stereo not drawn) [AMP 404, 2-Cyanoaziridine-1-(N-phenyl)carboxamide], the 50% inhibitory concentration (IC50) in the assay with MCF-7/MITOX cells is 0.8 µg/mL (≈ 4.27 µM); in assay [1], 0.5 µg/mL (≈ 2.67 µM); with A-549 lung cancer cells, 1.6 µg/mL (≈ 8.55 µM); in the assay with MCF-7/D40 cells, 0.5 µg/mL (≈ 2.67 µM); in the assay with WiDr colon cancer cells, 0.9 µg/mL (≈ 4.81 µM). For the same compound, the “Tumor cell sensitivity” value in the assay on tumor cell line panel is reported as “tumor cell sensitivity increased”.
Consider `CC(C)(C)NC(=O)N1CC1C#N` (stereo not drawn) [AMP 410, 2-Cyanoaziridine-1-(N-t-butyl)carboxamide], for which the IC50 is 20.1 µg/mL (≈ 120 µM) in the assay on MCF-7/MITOX cells; > 10 µg/mL in assay [1]; 33 µg/mL (≈ 197 µM) in the assay on A-549 lung cancer cells; 31.8 µg/mL (≈ 190 µM) in the assay on MCF-7/D40 cells; 30 µg/mL (≈ 179 µM) in the assay on WiDr colon cancer cells.
Taken in the same sequence, the figures for `CCNC(=O)N1CC1C#N` (stereo not drawn) [AMP 406, 2-Cyanoaziridine-1-(N-ethyl)carboxamide] were 1.4 µg/mL (≈ 10.1 µM), 4 µg/mL (≈ 28.7 µM), 2.5 µg/mL (≈ 18 µM), 2.8 µg/mL (≈ 20.1 µM) and 5.6 µg/mL (≈ 40.2 µM).
